Values quoted from earlier work in patent publication US6803034B2, “Compositions and methods for odor and fungal control in ballistic fabric and other protective garments” (Procter & Gamble Company, priority 2000, dated 2004).

| solubility in water | Compound |
| --- | --- |
| about 1.8% | [H]/N=C(\N/C(=N/[H])NCCCCCCNC(=N)NC(=N)Nc1ccc(Cl)cc1)Nc1ccc(Cl)cc1 [chlorhexidine diacetate, 1,1′-hexamethylene bis(5-(p-chlorophenyl)biguanide)] |
| about 70% | [H]/N=C(\N/C(=N/[H])NCCCCCCNC(=N)NC(=N)Nc1ccc(Cl)cc1)Nc1ccc(Cl)cc1 [chlorhexidine digluconate, 1,1′-hexamethylene bis(5-(p-chlorophenyl)biguanide)] |
